Holding throughout (assay type): in vivo
One assay deals with LAMSS. The assay can be described thus: Post-emergent Test III, herbicidal activity in wheat and barley. The conditions noted are these: for pest or weed control at 35 g/ha / pest or weed control at 70 g/ha / pest or weed control at 140 g/ha: post-emergence, 504 h, read-out: Visual Growth Reduction (%) 21 Days After Application LAMSS; for pest or weed control at 35 g/ha: 35 g ai/ha; for pest or weed control at 70 g/ha: 70 g ai/ha; for pest or weed control at 140 g/ha: 140 g ai/ha; for GR50 LAMSS / GR80 LAMSS: probit analysis, 21 days after application; for GR50 LAMSS: dose for growth reduction of 50 percent; for GR80 LAMSS: dose for growth reduction of 80 percent. The essentials:
(§1)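 Plants at the second to third true-leaf stage, grown in a greenhouse at about 18/17 °C with a 14 h photoperiod, were sprayed post-emergence at 187 L/ha with the high rate and ½× to 1/16× serial dilutions in an acetone/DMSO/crop-oil/surfactant carrier. Injury was rated visually at 21 d on a 0–100% scale, and GR20–GR90 were derived by probit analysis.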

In assay [1] the test system is VERPE: bird's-eye speedwell (veronica persica). The assay is described as above. The conditions noted are these: for pest or weed control at 35 g/ha / pest or weed control at 70 g/ha / pest or weed control at 140 g/ha: Veronica persica, post-emergence, 504 h, read-out: Visual Growth Reduction (%) 21 Days After Application VERPE; for pest or weed control at 35 g/ha: 35 g ai/ha; for pest or weed control at 70 g/ha: 70 g ai/ha; for pest or weed control at 140 g/ha: 140 g ai/ha; for GR50 VERPE / GR80 VERPE: probit analysis, 21 days after application; for GR50 VERPE: dose for growth reduction of 50 percent; for GR80 VERPE: dose for growth reduction of 80 percent. The method, boiled down:
as §1

In assay [2] the test system is ALOMY: black-grass (Alopecurus myosuroides). The assay is described as above. The conditions noted are these: for pest or weed control at 35 g/ha / pest or weed control at 70 g/ha / pest or weed control at 140 g/ha: Alopecurus myosuroides, post-emergence, 504 h, read-out: Visual Growth Reduction (%) 21 Days After Application ALOMY; for pest or weed control at 35 g/ha: 35 g ai/ha; for pest or weed control at 70 g/ha: 70 g ai/ha; for pest or weed control at 140 g/ha: 140 g ai/ha; for GR50 ALOMY / GR80 ALOMY: probit analysis, 21 days after application; for GR50 ALOMY: dose for growth reduction of 50 percent; for GR80 ALOMY: dose for growth reduction of 80 percent. The essentials:
as §1

Assay [3] has as its system IPOHE: ivyleaf morningglory (Ipomoea hederecea). The assay is described as follows: Pre-emergent Test I herbicidal activity. The note with it: pre-emergence, 336 h, read-out: Visual Growth Reduction (%) 14 Days After Application, IPOHE. The essentials: (§2)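 Sandy loam pots; sub-irrigation 16 h pre-application; soil-surface application then water incorporation; greenhouse ~15 h light, 23-29° C day / 22-28° C night; 0-100 rating at 14 DAT vs controls.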

Assay [4] has as its system SETFA: giant foxtail (Setaria faberi). The assay is described as follows: Pre-emergent Test I herbicidal activity. The conditions noted are these: pre-emergence, 336 h, read-out: Visual Growth Reduction (%) 14 Days After Application, SETFA. The method, boiled down:
as §2

In assay [5] the test system is ECHCG: barnyardgrass (Echinochloa crus-galli). The assay can be described thus: Pre-emergent Test I herbicidal activity. The conditions noted are these: pre-emergence, 336 h, read-out: Visual Growth Reduction (%) 14 Days After Application, ECHCG. The method, boiled down: as §2
The subject of assay [6] is AVEFA: wild oats (Avena fatua). The assay can be described thus: Pre-emergent Test I herbicidal activity. The note with it: pre-emergence, 336 h, read-out: Visual Growth Reduction (%) 14 Days After Application, AVEFA. The essentials:
as §2

Assay [7] concerns AMARE: redroot pigwseed (Amaranthus retroflexus). The assay can be described thus: Pre-emergent Test I herbicidal activity. The note with it: pre-emergence, 336 h, read-out: Visual Growth Reduction (%) 14 Days After Application, AMARE. The essentials:
as §2

Assay [8] relates to HELAN: sunflower (Helianthus annuus). The assay is described as follows: Pre-emergent Test I herbicidal activity. The note with it: pre-emergence, 336 h, read-out: Visual Growth Reduction (%) 14 Days After Application, HELAN. The essentials:
as §2

`Nc1c(F)c(-c2ccc(I)cc2)nc(C(=O)O)c1Cl` [Compound 45, 4-amino-3-chloro-5-fluoro-6-(4-iodophenyl)picolinic acid]: in the assay with LAMSS, the pest or weed control at 35 g/ha fell in the range of 85 to 94%, the pest or weed control at 70 g/ha was in the range of 95 to 100%, the pest or weed control at 140 g/ha was in the range of 95 to 100% and the “GR50 LAMSS” value was found to be 1 g ai/ha. Moreover, the “GR80 LAMSS” value in the assay with LAMSS was 6 g ai/ha. Further, in assay [1], the pest or weed control at 35 g/ha was in the range of 75 to 84%, the pest or weed control at 70 g/ha was in the range of 85 to 94%, the pest or weed control at 140 g/ha lay in the range of 85 to 94% and the “GR50 VERPE” value was 7 g ai/ha. For the same molecule, the “GR80 VERPE” value in assay [1] is 30 g ai/ha. In assay [2], the pest or weed control at 35 g/ha is 75 to 84%, the pest or weed control at 70 g/ha was 85 to 94%, the pest or weed control at 140 g/ha fell in the range of 95 to 100% and the “GR50 ALOMY” value is given as 9 g ai/ha. In addition, the “GR80 ALOMY” value in assay [2] is 27 g ai/ha. In assay [3] (3.96 kg ai/ha), the pest or weed control at 3960 g/ha was 95 to 100%. The pest or weed control at 3960 g/ha in [4] (3.96 kg ai/ha) lay within 95 to 100%. Further, in assay [5] (3.96 kg ai/ha), the pest or weed control at 3960 g/ha fell in the range of 95 to 100%. Also, the pest or weed control at 3960 g/ha in assay [6] (3.96 kg ai/ha) lay within 95 to 100%. Moreover, the pest or weed control at 3960 g/ha in assay [7] (3.96 kg ai/ha) is 95 to 100%. In addition, the pest or weed control at 3960 g/ha in [8] (3.96 kg ai/ha) lay in the range of 95 to 100%.
With `COC(=O)c1nc(-c2ccc(Br)cc2)c(F)c(N)c1Cl` [Compound 138, Methyl 4-amino-6-(4-bromophenyl)-3-chloro-5-fluoropicolinate], in the assay with LAMSS, the pest or weed control at 35 g/ha lay within 95 to 100%, the pest or weed control at 70 g/ha lay within 95 to 100%, the pest or weed control at 140 g/ha fell in the range of 95 to 100% and the “GR50 LAMSS” value amounted to 1 g ai/ha. In addition, the “GR80 LAMSS” value with LAMSS is on record as 1 g ai/ha. In assay [1], the pest or weed control at 35 g/ha fell in the range of 60 to 74%, the pest or weed control at 70 g/ha lay within 85 to 94%, the pest or weed control at 140 g/ha was in the range of 85 to 94% and the “GR50 VERPE” value is 15 g ai/ha. In addition, the “GR80 VERPE” value in assay [1] was 49 g ai/ha. In assay [2], the pest or weed control at 35 g/ha fell in the range of 75 to 84%, the pest or weed control at 70 g/ha is 85 to 94%, the pest or weed control at 140 g/ha was 95 to 100% and the “GR50 ALOMY” value is recorded as 11 g ai/ha. Besides, the “GR80 ALOMY” value in [2] came out at 30 g ai/ha. In assay [3] (4 kg ai/ha), the pest or weed control at 4000 g/ha was 95 to 100%. Also, in assay [4] (4 kg ai/ha), the pest or weed control at 4000 g/ha was in the range of 95 to 100%. In [5] (4 kg ai/ha), the pest or weed control at 4000 g/ha lay within 95 to 100%. For the same molecule, the pest or weed control at 4000 g/ha in assay [6] (4 kg ai/ha) lay within 95 to 100%. Besides, the pest or weed control at 4000 g/ha in assay [7] (4 kg ai/ha) is 95 to 100%. In addition, the pest or weed control at 4000 g/ha in assay [8] (4 kg ai/ha) is 95 to 100%.

The record behind these values is patent publication US9113629B2, “4-amino-6-(4-substituted-phenyl)-picolinates and 6-amino-2-(4-substituted-phenyl)-pyrimidine-4-carboxylates and their use as herbicides” (DOW AGROSCIENCES LLC, priority 2013, dated 2015).
